Laboratory results reported in US20200077655A1, “Use of an Acyclic Picolinamide Compound as a Fungicide for Control of Phytopathogenic Fungi in Orchard, Vineyard and Plantation Crops” (Dow AgroSciences LLC, priority 2017, published 2020).

Experiments:
Assay type in all cases: in vivo
[1] = tested on: Monilinia fructicola (MONIFC); assay: Field microplot assessment on brown rot on peaches; conditions: field grown peaches, 17 days after first application
Text: A field trial assessing the utility of Compound I on rot diseases of stone fruits was also done on peaches using a microplot method, part of an experimental trial designed as a randomized complete block with four replications. In a microplot method, two mature fruits on a single branch or cluster of fruits were selected for each replication (for a total of 10 replications) instead of using an entire replication. Colored flagging identified treatments. One day before the first application, a ZipLoc plastic bag was placed over the fruit or fruit cluster and an inoculation mix of MONIFC was sprayed inside covering the fruits. The plastic bags were removed after 24 hours. After 24 hr, fungicidal treatments containing Compound I, applied in a 5% EC formulation and tank mixed with an adjuvant (Trycol, 50% w/w at 0.2% v/v), were then sprayed twice on peaches (PRNPS) at rates of 50, 100, and 150 grams of active ingredient per hectare (g ai/ha). The applications to the selected mature peaches were done at 14 and 7 days before harvest using a CO2 powered inoculation spray gun at a water volume of 500 L/ha. At harvest, the fruits were collected in the field and placed in plastic Tupperware containers. 150 mL of de-ionized water was poured in the bottom of the Tupperware containers and the fruits were sprayed with a light mist of water. The containers were brought to the lab, enclosed in a large trash bag to keep the humidity high, and incubated on a lab bench at approximately 23° C. The percentage of visual disease incidence and severity was assessed during the trial at 17 days after the first application.

[2] = tested on: Stigmina carpophila (STIGCA); assay: Field assessment of two trials for shot hole in almond (AUDPC); conditions: almond leaf incidence
Text: A fungicidal treatment containing Compound I, applied in an SC formulation (MSO built-in) and tank mixed with an adjuvant (Agnique BP-420, 50% w/w at 0.2% v/v or Adsee C80W 80%), was sprayed on almond trees (PRNDU, Winters or Carmel varieties) at growth stage BBCH71 and 72 at rates of 60, 120, 150, and 180 g ai/ha in two trials. The experimental plots were run with natural infestation. The treatments were part of experimental trials designed as a randomized complete block (RCB) with three replications and a plot of approximately 14×20 ft, both trials. Compound I was applied at water volume of 100 gal/acre, using a Mistblower sprayer (Orifice nozzle 0.125 setting), both trials.
Percent Leaf incidence (calculated from the number of visual diseased leaves per 30 (Winters) or 50 (Carmel) leaves per tree on whole plot) was assessed three or four times during the trial. Area under the disease progress curve (AUDPC) was calculated for each plot using the sets of recorded leaf incidence data. Relative percent control was calculated from the AUDPC as percent of the untreated control using Abbotts.

[3] = tested on: Monilinia fructicola (MONIFC); assay: Field microplot assessment on brown rot on apricots; conditions: field grown apricots
Text: A field trial assessing the utility of Compound I on rot diseases of stone fruits was done using apricots in a microplot method, part of an experimental trial designed as a randomized complete block with four replications. In a microplot method, two mature fruits on a single branch or cluster of fruits were selected for each replication (for a total of 10 replications) instead of using an entire replication. Colored flagging identified treatments. Fungicidal treatments containing Compound I, applied in a 5% EC formulation and tank mixed with an adjuvant (Trycol, 50% w/w at 0.2% v/v), were sprayed on apricots (PRNAR) at rates of 50, 100, and 150 grams of active ingredient per hectare (g ai/ha). The applications to the selected mature apricots were done at 7 days before harvest using a hand held manual spray bottle at a water volume of 500 L/ha. One day after application, a ZipLoc plastic bag was placed over the fruit or fruit cluster and an inoculation mix of MONIFC (Rhizopus was from natural population present in the orchard) was sprayed inside covering the fruits. The plastic bags were removed after 24 hours. At harvest, the fruits were collected in the field and placed in plastic Tupperware containers. 150 mL of de-ionized water was poured in the bottom of the Tupperware containers and the fruits were sprayed with a light mist of water. The containers were brought to the lab, enclosed in a large trash bag to keep the humidity high, and incubated on a lab bench at approximately 23° C. Visual disease incidence was assessed during the trial at 9 and 16 days after application. Area under the disease progress curve (AUDPC) was calculated for each plot using the sets of recorded incidence data. Relative AUDPC (% control based on AUDPC) was calculated as percent of the nontreated control.

[4] = tested on: Tranzschelia discolor (TRANDI); assay: Field assessment of rust in almond; conditions: untreated 61.3
Text: A fungicidal treatment containing Compound I, applied in an SC formulation (MSO-buit in) and tank mixed with an adjuvant (Adsee C80W 80%), was sprayed on almond trees (PRNDU, Butte variety) with 2 applications at growth stages BBCH67-69 and BBCH69-72 at rates of 60, 120, 150, and 180 g ai/ha. The experimental plots were run under natural infestation. The treatments were part of an experimental trial designed as a randomized complete block (RCB) with three replications and a plot of approximately 16×22 ft. Compound I was applied at water volume of 100 gal/acre, using a motorized backpack sprayer.
Percent leaf incidence (calculated from number of visual diseased leaves per 50 leaves per one tree) was assessed and recorded at 105 days after application A (105 DAAA).

[5] = 120 g ai/ha, Adsee C80W, 300 g ai/ha

## COc1ccnc(C(=O)N[C@@H](C)C(=O)O[C@@H](C)C(c2ccc(F)cc2)c2ccc(F)cc2)c1OC(C)=O [Compound I, (S)-1,1-bis(4-fluorophenyl)propan-2-yl (3-acetoxy-4-methoxypicolinoyl)-L-alaninate]
[1]; 50 g ai/ha
  MONIFC, percentage of area affected on peaches (Severity): 87.3%
[1]; 100 g ai/ha
  MONIFC, percentage of area affected on peaches (Severity): 57.0%
[1]; 150 g ai/ha
  MONIFC, percentage of area affected on peaches (Severity): 69.5%
[2]; 60 g ai/ha, Agnique BP420, 240 mL/ha
  Calculated Percent Control (AUDPC) of STIGCA: 45.2%
[2]; 60 g ai/ha, MSO, 120 g ai/ha
  Calculated Percent Control (AUDPC) of STIGCA: 47.9%
[2]; [5]
  Calculated Percent Control (AUDPC) of STIGCA: 44.6%
[2]; 120 g ai/ha, Agnique BP420, 480 mL/ha
  Calculated Percent Control (AUDPC) of STIGCA: 49%
[2]; 120 g ai/ha, MSO, 240 g ai/ha
  Calculated Percent Control (AUDPC) of STIGCA: 48.3%
[2]; 150 g ai/ha, Agnique BP420, 600 mL/ha
  Calculated Percent Control (AUDPC) of STIGCA: 41.1%
[2]; 150 g ai/ha, MSO, 300 g ai/ha
  Calculated Percent Control (AUDPC) of STIGCA: 45.1%
[2]; 180 g ai/ha, Agnique BP420, 720 mL/ha
  Calculated Percent Control (AUDPC) of STIGCA: 30.1%
[2]; 180 g ai/ha, MSO, 360 g ai/ha
  Calculated Percent Control (AUDPC) of STIGCA: 49.0%
[3]; 50 g ai/ha
  Percent control (AUDPC) from fruit incidence, MONIFC: B (51-75)
[3]; 100 g ai/ha
  Percent control (AUDPC) from fruit incidence, MONIFC: B (51-75)
[3]; 150 g ai/ha
  Percent control (AUDPC) from fruit incidence, MONIFC: B (51-75)
[4]; 60 g ai/ha, MSO, 120 g ai/ha
  Percent Visual Leaf Incidence of TRANDI 89 DAAB: 13.3%
[4]; [5]
  Percent Visual Leaf Incidence of TRANDI 89 DAAB: 11.3%
[4]; 120 g ai/ha, MSO, 240 g ai/ha
  Percent Visual Leaf Incidence of TRANDI 89 DAAB: 9.3%
[4]; 150 g ai/ha, MSO, 300 g ai/ha
  Percent Visual Leaf Incidence of TRANDI 89 DAAB: 6.0%
[4]; 180 g ai/ha, MSO, 360 g ai/ha
  Percent Visual Leaf Incidence of TRANDI 89 DAAB: 6.0%
